Where a name gives a salt, the structure may show the parent alone. Read-outs that look alike come from different tables or passages of the source.
Assays:
[1] = tested on: EHV-4 405/76 reference strain; conditions: ratio of CC50 to EC50 obtained by qPCR
[2] = tested on: EHV-4 405/76 reference strain; experiment: microbe, parasite or virus in culture
[3] = tested on: EHV-4 405/76 reference strain; experiment: RTCA; assay type: cell-based, Equid herpesvirus 4; conditions: area under normalized Cell Index curves, 0-120 hpi, EHV-4-infected E. Derm cells
[4] = tested on: EHV-4 405/76 reference strain; conditions: for Si (CC50/EC50, RTCA): ratio of CC50 to EC50 obtained by RTCA; for CIT50 increase: RTCA, EHV-4-infected E. Derm cells
[5] = Cytotoxicity by CellTiter-Glo; conditions: horse, E. Derm cells
[6] = Cytotoxicity by impedance using RTCA; conditions: horse, E. Derm cells
[7] = tested on: EHV-4 405/76 reference strain; experiment: microbe, parasite or virus in culture; remark: listed apart in the source
[8] = tested on: mice; conditions: mouse, in vivo; cited from earlier work
[9] = in vivo; cited from earlier work
[10] = in vitro; conditions: horse
[11] = in vitro; conditions: horse; remark: listed apart in the source
[12] = Equid alphaherpesvirus 4, read-out: qPCR EC50 (µM ± S.D)
[13] = Equid alphaherpesvirus 4, read-out: qPCR EC50 (µg/mL ± S.D)
[14] = Equid alphaherpesvirus 4, read-out: RTCA EC50 (µM ± S.D)
[15] = Equid alphaherpesvirus 4, read-out: RTCA EC50 (µg/mL ± S.D)

Nc1ccn(C[C@@H](CO)OCP(=O)(O)O)c(=O)n1 [Cidofovir]
SI (CC50 CellTiter-Glo/EC50 qPCR) [1]: >6.26 | EC50 [2, 12]: 7.99 ± 3.38 µM | EC50 [2, 13]: 2.23 ± 0.94 µg/mL | AUCn ([3]; 0.4 µM): 38.54 | AUCn ([3]; 2 µM): 42.07 | AUCn ([3]; 10 µM): 40.56 | AUCn ([3]; 50 µM): 59.40 | Si (CC50/EC50, RTCA) [4]: >3.98 | CC50 [5]: > 50 µM | CC50 [6]: > 50 µM | EC50 [7, 14]: 12.6 ± 4.32 µM | EC50 [7, 15]: 3.5 ± 1.21 µg/mL

Nc1ncn([C@H]2C[C@H](O)[C@@H](CO)O2)c(=O)n1 [Decitabine]
SI (CC50 CellTiter-Glo/EC50 qPCR) [1]: >178.57 | EC50 [2, 12]: 0.28 ± 0.05 µM | EC50 [2, 13]: 0.06 ± 0.01 µg/mL | AUCn ([3]; 0.4 µM): 73.51 | AUCn ([3]; 2 µM): 93.80 | AUCn ([3]; 10 µM): 120.54 | AUCn ([3]; 50 µM): 128.21 | CIT50 increase ([4]; 0.78 µM): 25.66 ± 10.74 h | CIT50 increase ([4]; 1.56 µM): 30.13 ± 15.34 h | Si (CC50/EC50, RTCA) [4]: >43.10 | CC50 [5]: > 50 µM | CC50 [6]: > 50 µM | toxic concentration [8]: ~25 µM | EC50 [7, 14]: 1.16 ± 0.31 µM | EC50 [7, 15]: 0.26 ± 0.07 µg/mL

CC(C)[C@H](N)C(=O)OCC(CO)OCn1cnc2c(=O)nc(N)[nH]c21 (stereo partly shown) [Valganciclovir hydrochloride]
SI (CC50 CellTiter-Glo/EC50 qPCR) [1]: >13.89 | improvement of the bioavailability of ganciclovir by oral valganciclovir [9]: 41 ± 20% | CC50 [10]: > 50 µM | EC50 [2, 12]: 3.6 ± 1.02 µM | EC50 [2, 13]: 1.28 ± 0.36 µg/mL | AUCn ([3]; 0.4 µM): 33.79 | AUCn ([3]; 2 µM): 42.41 | AUCn ([3]; 10 µM): 75.80 | AUCn ([3]; 50 µM): 145.98 | Si (CC50/EC50, RTCA) [4]: >5.24 | CC50 [11]: > 50 µM | EC50 [7, 14]: 9.55 ± 2.81 µM | EC50 [7, 15]: 3.38 ± 1 µg/mL

From PMC11125953 (Viruses, 2024)
